PMC12165799, “Antimicrobial peptide developed with machine learning sequence optimization targets drug resistant Staphylococcus aureus in mice” (The Journal of Clinical Investigation, 2025)

Legend:
[1] = test system: HepG2 cells; experiment: Mammalian cell cytotoxicity assay
Method: 410 the HepG2 cells at 37°C in 5% CO2 in Dulbecco’s Modified Eagle Medium (DMEM) (Gibco, MA,
We harvested and resuspended cells in fresh DMEM

[2] = test system: S. aureus MW2 skin infection; experiment: Skin-abraded murine infection, established infection model, bacterial load; type: in vivo, mice; set-up: Bacterial load from skin specimens, established infection model / bacterial load in skin, Sup. Fig. 12: unit not given here; settings: for Bacterial load from skin specimens, established infection model: 2% ointment 24 hours after infection; for bacterial load in skin, Sup. Fig. 12: 2%, mice
Method: (§1) 599 In vivo murine skin infection and treatment
(§2) 600 We used a topical skin-abraded murine infection model with minor modifications to test
(§3) 601 the in vivo efficacy of the CIT-8 peptide (25). We performed all mouse studies following the
(§4) 602 protocol approved by the Institutional Animal Care and Use Committee. In brief, we anesthetized
(§5) 603 female C57BL/6 mice (6 weeks) (Jackson Laboratory, Bar Harbor, ME, USA) with ketamine-
(§6) 604 xylazine (90 mg/kg ketamine and 10 mg/kg xylazine) via intraperitoneal injection. We shaved the
(§7) 605 dorsal side of the mice in the middle of the back (area=2 cm2). To disrupt skin integrity, we tape-
(§8) 606 stripped with Tensoplast® seven times in succession, replacing the tape each time, resulting in
(§9) 607 visibly damaged skin. We infected the damaged skin area with 1 × 10^7 CFU of S. aureus MW2
(§10) 608 (exponential phase bacteria in PBS) with an inoculum of 50 µl using a pipette tip. Ten minutes
(§11) 609 (prophylactic model) and 24 h (established model) after bacterial inoculation, we applied 30 mg
(§12) 610 of 1 and 2% (w/w) CIT-8 ointment in a white petroleum jelly base (Cat no. 19-090-843, Fisher
(§13) 611 Scientific, MA, USA) to the skin. We also included animal groups treated with only petroleum
(§14) 612 jelly or with 2% commercial mupirocin ointment as negative and positive controls, respectively.
(§15) 613 For pain management, we used the analgesic buprenorphine SR (0.05 mg/kg).
(§16) 614 After 24 h of treatment, we euthanized the animals, separated the skin from the underlying
(§17) 615 fascia and muscle tissue, and excised about 2 cm2 of skin from the infected area. We ground the
(§18) 616 skin in 1ml of PBS buffer (Gibco, MD, USA). We serially diluted 100 µl of the solution in PBS
(§19) 617 and plated it on Remel™ TSA plates (Fisher, MA, USA) to estimate viable colony counts after 18
(§20) 618 h of incubation at 37 °C. Further, we added 10 µl of EDTA-Free, protease inhibitor cocktail Set III
(§21) 619 (Millipore Sigma, MA, USA) to 500 µl of the ground skin PBS solution for cytokine estimation.
(§22) 620 The Cytokine Core, LLC (Indianapolis, IN, USA) performed the cytokine concentration analysis

[3] = test system: S. aureus MW2 skin infection; experiment: Skin-abraded murine infection, prophylactic (acute) model, bacterial load; type: in vivo, mice; settings: for Bacterial load from skin specimens, prophylactic model: 2% ointment 10 minutes after infection
Method: as §1, §2, §3, §4, §5, §6, §7, §8, §9, §10, §11, §12, §13, §14, §15, §16, §17, §18, §19, §20, §21, §22

[4] = test system: S. aureus MW2; experiment: Minimal inhibitory concentration (MIC) assay, broth microdilution; type: cell-based, Staphylococcus aureus; settings: S. aureus MW2; broth microdilution, TSB, 1 × 10^6 CFU/ml, 37°C 18 h, OD600, duplicate
Method: 300 Synthesis of peptides
302 Piscataway, NJ, USA).
305 Minimal inhibitory concentration (MIC) assay
We made serial dilutions of 10×
We determined the MIC using OD600
Accordingly, we added 150 mM NaCl,
319 established protocol (5).

[5] = HPLC retention time on C18 reverse-phase column; type: physicochemical
Text: Table 1 Physical parameters and minimal inhibitory concentrations of citropin 1.1-derived peptides against S. aureus MW2 | column: rT^D (min)

CNC(C)C1CCC(N)C(OC2C(N)CC(N)C(OC3OCC(C)(O)C(NC)C3O)C2O)O1 (centres unmarked) [gentamicin, reference compound]
HepG2 cell viability, Sup. Fig. 4B ([1]; 4 μg/ml, replicate 1): 100.314
HepG2 cell viability, Sup. Fig. 4B ([1]; 4 μg/ml, replicate 2): 105.383
HepG2 cell viability, Sup. Fig. 4B ([1]; 4 μg/ml, replicate 3): 105.587
HepG2 cell viability, Sup. Fig. 4B ([1]; 8 μg/ml, replicate 1): 101.846
HepG2 cell viability, Sup. Fig. 4B ([1]; 8 μg/ml, replicate 2): 103.015
HepG2 cell viability, Sup. Fig. 4B ([1]; 8 μg/ml, replicate 3): 101.846
HepG2 cell viability, Sup. Fig. 4B ([1]; 16 μg/ml, replicate 1): 102.511
HepG2 cell viability, Sup. Fig. 4B ([1]; 16 μg/ml, replicate 2): 103.671
HepG2 cell viability, Sup. Fig. 4B ([1]; 16 μg/ml, replicate 3): 100.107
HepG2 cell viability, Sup. Fig. 4B ([1]; 32 μg/ml, replicate 1): 102.999
HepG2 cell viability, Sup. Fig. 4B ([1]; 32 μg/ml, replicate 2): 106.118
HepG2 cell viability, Sup. Fig. 4B ([1]; 32 μg/ml, replicate 3): 103.265
HepG2 cell viability, Sup. Fig. 4B ([1]; 64 μg/ml, replicate 1): 103.75
HepG2 cell viability, Sup. Fig. 4B ([1]; 64 μg/ml, replicate 2): 104.801
HepG2 cell viability, Sup. Fig. 4B ([1]; 64 μg/ml, replicate 3): 97.7499
HepG2 cell viability, Sup. Fig. 4B ([1]; 128 μg/ml, replicate 1): 104.41
HepG2 cell viability, Sup. Fig. 4B ([1]; 128 μg/ml, replicate 2): 112.88
HepG2 cell viability, Sup. Fig. 4B ([1]; 128 μg/ml, replicate 3): 101.795

C/C(=C\C(=O)OCCCCCCCCC(=O)O)C[C@@H]1OC[C@H](C[C@@H]2O[C@H]2[C@@H](C)[C@H](C)O)[C@@H](O)[C@H]1O [mupirocin, reference compound]
Bacterial load from skin specimens, established infection model ([2]; animal 1): 5546493
Bacterial load from skin specimens, established infection model ([2]; animal 2): 5663717
Bacterial load from skin specimens, established infection model ([2]; animal 3): 38314176
Bacterial load from skin specimens, established infection model ([2]; animal 4): 4793289
Bacterial load from skin specimens, established infection model ([2]; animal 5): 8342990
Bacterial load from skin specimens, established infection model ([2]; animal 6): 7083333
Bacterial load from skin specimens, established infection model ([2]; animal 7): 21857924
Bacterial load from skin specimens, established infection model ([2]; animal 8): 14962594
Reduction of S. aureus MW2 vs vehicle, established infection model ([2]; 2% w/w ointment, single dose 24 hours after inoculation, n = 8): 2.4 log
bacterial load in skin, Sup. Fig. 12 ([2]; animal 1): 84745.8
bacterial load in skin, Sup. Fig. 12 ([2]; animal 2): 264317
bacterial load in skin, Sup. Fig. 12 ([2]; animal 3): 520833
bacterial load in skin, Sup. Fig. 12 ([2]; animal 4): 633914
bacterial load in skin, Sup. Fig. 12 ([2]; animal 5): 864198
bacterial load in skin, Sup. Fig. 12 ([2]; animal 6): 285714
bacterial load in skin, Sup. Fig. 12 ([2]; animal 7): 1465201
bacterial load in skin, Sup. Fig. 12 ([2]; animal 8): 754717
Bacterial load from skin specimens, prophylactic model ([3]; animal 1): 500000
Bacterial load from skin specimens, prophylactic model ([3]; animal 2): 380952
Bacterial load from skin specimens, prophylactic model ([3]; animal 3): 320000
Bacterial load from skin specimens, prophylactic model ([3]; animal 4): 47058.8
Bacterial load from skin specimens, prophylactic model ([3]; animal 5): 200000
Bacterial load from skin specimens, prophylactic model ([3]; animal 6): 34782.6
Bacterial load from skin specimens, prophylactic model ([3]; animal 7): 176000
Bacterial load from skin specimens, prophylactic model ([3]; animal 8): 533333
Bacterial load from skin specimens, prophylactic model ([3]; animal 9): 769231
Bacterial load from skin specimens, prophylactic model ([3]; animal 10): 1538462
Bacterial load from skin specimens, prophylactic model ([3]; animal 11): 289655
Bacterial load from skin specimens, prophylactic model ([3]; animal 12): 252632
Reduction of S. aureus MW2 burden vs vehicle, prophylactic model ([3]; 2% w/w ointment, single treatment 10 minutes after inoculation, n = 12): 2.8 log

H-GLFDVIKKLLSVI-NH2 [CIT-5]
MIC SA [4]: > 32 mg/L
rT (HPLC retention time) [5]: 22.300 min

H-GLFDVIKKVASVI-NH2 [CIT-1]
MIC SA [4]: > 32 mg/L
rT (HPLC retention time) [5]: 17.570 min

H-GLFKVIKKLLSVI-NH2 [CIT-7]
MIC SA [4]: 4 mg/L
rT (HPLC retention time) [5]: 19.956 min

H-GLFKVIKKVAKVI-NH2 [CIT-4]
MIC SA [4]: > 32 mg/L
rT (HPLC retention time) [5]: 17.776 min

H-GLFKVIKKVASVI-NH2 [CIT-3]
MIC SA [4]: > 32 mg/L
rT (HPLC retention time) [5]: 17.400 min

H-GLFSVIKKLLSVI-NH2 [CIT-6]
MIC SA [4]: 2 mg/L
rT (HPLC retention time) [5]: 23.302 min

H-GLFSVIKKVASVI-NH2 [CIT-2]
MIC SA [4]: > 32 mg/L
rT (HPLC retention time) [5]: 15.711 min
